Literature values in patent publication US20070190095A1, “Coffee and its derivatives as an animal repellent composition and its use in a molluscicide bait” (priority 2006, published 2007).

System: snails
Settings: 2% solution of caffeine in water sprayed on coconut husk-chip material in which orchids are grown

## Cn1c(=O)c2c(ncn2C)n(C)c1=O [caffeine, Caffeine]
  snails killed: 95%
